Legend:
[1] = tested on: isolated cardiac fibroblasts; assay type: cell-based, rat; conditions: for Effect on MBG stimulation of collagen synthesis (procollagen expression): MBG 10 nM 24 h, PP2 1 μmol/L, herbimycin 1 μmol/L, AG1478 250 nM, N-acetyl cysteine 2.5 mmol/L from 2 hours before
Procedure: (§1) Preparation of adult rat cardiac fibroblasts was performed as described previously by Brilla et al. with modifications.
Western blot analysis was performed on protein isolated from tissue homogenates, cell culture whole cell lysates, or nuclear extracts as described previously.
(§2) Representative Western blot for procollagen and quantitative densitometric data obtained in response to different doses of (a) MBG (all N=10), (b) MBG 10 nM contrasted with different doses of ouabain (0.1 to 100 nM) and digoxin (10 nM; all N=8). c, ouabain sensitive Rb uptake as a function of MBG and ouabain concentration (N=4 at each concentration for both MBG and ouabain; data expressed as fraction of control). d, relative proline incorporation in the supernatant and matrix, both will and without collagenase digestion (total). Each group (controls and different doses of MBG) contains N=7 replicants. The difference between the total and after collagenase digestion is reported as collagen. The matrix is the sample that was obtained after removing supernatant and scraping the culture dish. e, mRNA for collagen 1 in MBG-treated (10 nM; N=8) or control (N=8) fibroblasts. f, procollagen stability after cycloheximide treatment. Time 0 is 1 hour after incubation with cycloheximide (20 μg/mL). […] Least-square regression line fit to control (CTL) and MBG data. Bars on quantitative graphs represent the mean.+−.SEM. *P<0.05 and **P<0.01 vs control.
(§3) The PP2, herbimycin AG1478, and N-acetyl cysteine were administered from 2 hours before the addition of MBG and continued throughout the 24 hours of MBG incubation (total of 26 hours). Each bar represents the mean.+−.SEM of n=8 experiments. b, effects of PP2 (1 μmol/L) and N-acetyle cysteine (2.5 mmol/L) on MBG (10 nM)-stimulated proline incorporation into collagen. Again, the PP2 an N-acetyl cysteine were added 2 hours before exposure to MBG. Each bar represents the mean.+−.SEM of N=5 experiments. c, effects of MBG 10 nM on procollagen content in SYF and SYF+ cells. Representative Western blots are shown above quantitative data. SYF blots loaded with 15 μg of protein and SYF+blots loaded with 10 μg of protein. Each bar represents the mean.+−SEM of N-6 determinations In each group. **P<01.10 vs. control.
(§4) The effect of 24 hours of MBG (1 and 10 nM) on TGF-β, Smad 2/3, Smad 4, and pSmad 2/3 expression determined by Western blot. b and c, effects of 24 hours of MBG (10 nM), TGFβ(5 ng/mL), and the TGF-β receptor antagonist SB431542 ([…] on procollagen-1 expression (Western blot) and radiolabeled proline incorporation, respectively also were carried out. SB431542 was added 2 hours before exposure to either TGFβ or MBG (total of 26-hour exposure). Each bar represents the mean.+−.SEM of 6 to 8 determinations. *P<0.05, **P<0.01 vs. control.

[2] = tested on: isolated cardiac fibroblasts; test: Radiolabeled proline incorporation into collagen (collagen synthesis) in cardiac fibroblasts; assay type: cell-based, rat; conditions: for Effect on MBG-stimulated proline incorporation into collagen: MBG 10 nM, PP2 1 μmol/L, N-acetyl cysteine 2.5 mmol/L added 2 hours before
Procedure: as §1
Collagen synthesis rates were determined by the method of Nishida et al. with modification.
(§5) To further examine the molecular basis of this cardiac fibrosis, isolated cardiac fibroblasts were subjected to increase doses of MBG (10^−10, 10^−9, and 10^−8 M). […] Using collagenase digestion, we observed that the vast majority of the proline incorporation was into collagen. Using standardized RT-PCR, we observed a doubling of mRNA for collagen-1 at 24 hours in response to 10 nM of MBG.
as §2
as §3, with “The effects of PP2 (1 μmol/L), herbimycin (1 μmol/L), AG1478 (250 nM), and N-acetyl cysteine (2.5 mmol/L) on MBG (10 nM) stimulation of procollagen expression also were found. The” for “The”
as §4

Milan hypertensive rats = conditions: cited from earlier work
fibroblast cell line = test: Procollagen expression in immortalized fibroblast cell line (Western blot); assay type: cell-based
Text: We next examined whether skin fibroblasts lines had similar response. This was done with dermal fibroblasts kindly provided by Dr. Bashar Kahaleh. […] The magnitude of this response is illustrated by comparison to maximal doses of TGFβ, the “classic” stimulus for fibrosis (see below). In addition, we observed that an immortalized fibroblast line responded similarly to MBG, ouabain and digoxin.
Response of dermal fibroblasts to MBG as compared with TGF beta. Note that increase in collagen expression in MBG is approximately 10 fold with 5 or 10 nM MBG.

[3] = cited from earlier work
Na/K-ATPase = molecular target: T1, Na/K-ATPase (Rattus norvegicus, UniProt P06685); test: Ouabain sensitive 86Rb uptake in cardiac fibroblasts; assay type: cell-based
T1 construct: In vitro studies were then pursued with cultured isolated cardiac fibroblasts; endogenous in cells; host or cells: primary isolated cardiac fibroblasts in culture
Procedure: as §5
Representative Western blot for procollagen and quantitative densitometric data obtained in response to different doses of (a) MBG (all N=10), (b) MBG 10 nM contrasted with different doses of ouabain (0.1 to 100 nM) and digoxin (10 nM; all N=8). c, ouabain sensitive Rb uptake as a function of MBG and ouabain concentration (N=4 at each concentration for both MBG and ouabain; data expressed as fraction of control). d, relative proline incorporation in the supernatant and matrix, both will and without collagenase digestion (total). Each group (controls and different doses of MBG) contains N=7 replicants. The difference between the total and after collagenase digestion is reported as collagen. […] Bars on quantitative graphs represent the mean.+−.SEM. *P<0.05 and **P<0.01 vs control.

SYF+ cells = test: Procollagen expression in SYF+ cells; assay type: cell-based; conditions: MBG 10 nM
Text: (§6) To examine whether cardiotronic steroids induced collagen synthesis by signaling through the Na/K-ATPase, we performed the following studies. First, we used pharmacological antagonism at several steps in the Na/K-ATPase cascade. Specifically, we used pharmacological antagonism of Src activation with PP2, nonspecific tyrosine kinase inhibition with herbimycin, inhibition of EGFR transactivation with AG1478, and nonspecific antioxidant administration with N-acetyle cysteine. […] Next we performed studies in the SYF and SYF+ cells (details available in the online supplement).
as §3, with “The effects of PP2 (1 μmol/L), herbimycin (1 μmol/L), AG1478 (250 nM), and N-acetyl cysteine (2.5 mmol/L) on MBG (10 nM) stimulation of procollagen expression also were found. The” for “The”, “SYF blots loaded with 15 μg of protein and SYF+blots loaded with 10 μg of protein. Each bar represents the mean.+−SEM of N-6 determinations In each group. **P<01.10 vs. control.” left out

SYF cells = test: Procollagen expression in SYF cells; assay type: cell-based; conditions: MBG 10 nM
Text: as §6
as §3, with “The effects of PP2 (1 μmol/L), herbimycin (1 μmol/L), AG1478 (250 nM), and N-acetyl cysteine (2.5 mmol/L) on MBG (10 nM) stimulation of procollagen expression also were found. The” for “The”, “SYF blots loaded with 15 μg of protein and SYF+blots loaded with 10 μg of protein. Each bar represents the mean.+−SEM of N-6 determinations In each group. **P<01.10 vs. control.” left out

fibroblasts = conditions: 48 hours, 15 ng/mL; cited from earlier work

## COc1cc2ncnc(Nc3cccc(Cl)c3)c2cc1OC [AG1478]
[1]
  Effect on MBG stimulation of collagen synthesis (procollagen expression): prevented MBG stimulation of collagen synthesis

## CC(=O)N[C@@H](CS)C(=O)O [N-acetyl cysteine]
[1]
  Effect on MBG stimulation of collagen synthesis (procollagen expression): prevented MBG stimulation of collagen synthesis
[2]
  Effect on MBG-stimulated proline incorporation into collagen: prevented increases in proline incorporation into collagen

## CC(C)(C)n1nc(-c2ccc(Cl)cc2)c2c(N)ncnc21 [PP2]
[1]
  Effect on MBG stimulation of collagen synthesis (procollagen expression): prevented MBG stimulation of collagen synthesis
[2]
  Effect on MBG-stimulated proline incorporation into collagen: prevented increases in proline incorporation into collagen

## C[C@]12CC[C@H](O)C[C@H]1CC[C@@H]1[C@@H]2CC[C@]2(C)[C@@](O)(c3ccoc3)CC[C@]12O [PST 2238]
Milan hypertensive rats
  Effect on hypertension and cardiac hypertrophy: ameliorates hypertension, as well as cardiac hypertrophy

## NC(=O)c1ccc(-c2nc(-c3ccc4c(c3)OCO4)c(-c3ccccn3)[nH]2)cc1 [SB431542]
[1]; 100-μmol/L
  Procollagen expression relative to baseline (Western blot): did not educe procollagen expression below baseline
[1]; SB431542 added 2 hours before
  Effect on TGF-β and MBG (10 nM) stimulation of collagen expression: completely blocked
[2]; 100-μmol/L
  Radiolabeled proline incorporation relative to control cells: did decrease radiolabeled proline incorporation below that seen with control cells
[2]; SB431542 added 2 hours before
  Effect on TGF-β and MBG (10 nM) stimulation of radiolabeled proline incorporation: completely blocked

## C[C@H]1O[C@@H](O[C@H]2[C@@H](O)C[C@H](O[C@H]3[C@@H](O)C[C@H](O[C@H]4CC[C@@]5(C)[C@H](CC[C@@H]6[C@@H]5C[C@@H](O)[C@]5(C)[C@@H](C7=CC(=O)OC7)CC[C@]65O)C4)O[C@@H]3C)O[C@@H]2C)C[C@H](O)[C@@H]1O [digoxin]
Fibroblast cell line
  Effect on fibroblast cell line expression of procollagen: Comparable effect
[3]; human, in vivo
  Free fraction of plasma digoxin: 70% to 80%
[3]; patients treated with digoxin
  Total digoxin levels typically maintained in patients: < 2 ng/mL

## CO[C@H]1[C@@H](OC)C[C@H](C)[C@@H](OC)C2=CC(=O)C=C(NC(=O)/C(C)=C/C=C\[C@H](OC)[C@@H](OC(N)=O)/C(C)=C/[C@@H]1C)C2=O [herbimycin]
[1]
  Effect on MBG stimulation of collagen synthesis (procollagen expression): prevented MBG stimulation of collagen synthesis

## C[C@@H]1O[C@@H](O[C@H]2C[C@@H](O)[C@]3(CO)[C@H]4[C@H](O)C[C@]5(C)[C@@H](C6=CC(=O)OC6)CC[C@]5(O)[C@@H]4CC[C@]3(O)C2)[C@H](O)[C@H](O)[C@H]1O [ouabain, reference compound]
Na/K-ATPase
  Threshold for inducing collagen expression relative to doses with detectable effects on 86Rb uptake: log units below
Fibroblast cell line
  Effect on fibroblast cell line expression of procollagen: Comparable effect
SYF+ cells
  Upregulation of procollagen expression in SYF+ cells: very similar way as the primary cardiac fibroblast cultures
SYF cells
  Response of procollagen expression in SYF cells: essentially no response

## TGF-β
[1]; TGF-β 5 ng/mL and MBG 10 nM
  Synergism with MBG on procollagen expression: did not note any synergism
fibroblasts
  Maximal increase in collagen production: 2 times

Source: US9072751B2, “Na/K-ATPase ligand” (priority 2006, dated 2015)
